Test results taken from patent US8008299B2, “Urotensin II receptor antagonists” (Janssen Pharmaceutica, N.V., priority 2007, dated 2011).
Where two headings read alike, the source gives them in different places.

Tests used:
[1] = target: T1, Human UII (U-II receptor) in 6D9 human rhabdomyosarcoma cells (Homo sapiens, UniProt Q9UKP6); assay: Human UII Calcium Mobilization Assay; type: cell-based; details: 6D9 human rhabdomyosarcoma cells, FLIPR TETRA, average; read-out: Human UII Ca+ Mobilization Average IC50
T1 construct: 6D9: isolated by dilution subcloning of RMS13 cells, ATCC® Number: CRL-2061; host or cells: 6D9 human rhabdomyosarcoma cells (subclone of RMS13)
T1 sequence (Q9UKP6 1-389): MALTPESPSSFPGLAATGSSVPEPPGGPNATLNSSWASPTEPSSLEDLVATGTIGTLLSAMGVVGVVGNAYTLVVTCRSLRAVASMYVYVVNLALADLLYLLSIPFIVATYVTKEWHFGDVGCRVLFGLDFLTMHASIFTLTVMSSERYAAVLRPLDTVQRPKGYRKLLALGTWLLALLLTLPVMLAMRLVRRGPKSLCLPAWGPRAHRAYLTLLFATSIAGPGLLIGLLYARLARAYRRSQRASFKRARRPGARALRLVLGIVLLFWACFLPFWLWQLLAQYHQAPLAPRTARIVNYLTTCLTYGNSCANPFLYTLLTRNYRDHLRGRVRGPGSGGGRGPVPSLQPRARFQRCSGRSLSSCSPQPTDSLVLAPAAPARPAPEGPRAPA

[2] = target: T2, rat GPR14 (U-II receptor) (Rattus norvegicus, UniProt P49684); assay: Rat UII Calcium Mobilization FLIPR Assay; type: cell-based; details: CHO cells transfected with rat GPR14; antagonist activity after 5 min incubation vs agonist (Ac)-CFWK(2-NaI)C-NH2 at 1 nM
T2 construct: expressed in transfected cells
T2 sequence (P49684 1-386): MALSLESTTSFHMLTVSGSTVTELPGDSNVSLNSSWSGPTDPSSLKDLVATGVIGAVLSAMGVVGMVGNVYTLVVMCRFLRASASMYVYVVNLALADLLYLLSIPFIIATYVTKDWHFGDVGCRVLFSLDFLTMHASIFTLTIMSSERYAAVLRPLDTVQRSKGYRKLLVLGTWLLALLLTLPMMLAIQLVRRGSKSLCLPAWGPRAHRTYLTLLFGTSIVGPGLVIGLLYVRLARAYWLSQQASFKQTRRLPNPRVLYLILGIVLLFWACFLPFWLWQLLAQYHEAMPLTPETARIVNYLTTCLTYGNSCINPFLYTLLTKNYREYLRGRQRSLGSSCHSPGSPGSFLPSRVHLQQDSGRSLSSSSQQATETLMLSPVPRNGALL
Summary of the method: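 Fluorescent calcium signals were recorded at room temperature (23° C) by FLIPR. Stable rat U-II receptor CHO lines had been dye-loaded for 1 h at 37° C in pH 7.4 HBSS containing 20 mM HEPES, 0.1% BSA and 2.5 mM probenecid.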

[3] = target: T3, UT receptors in HSMM (Human Skeletal Muscle Myoblasts) (Homo sapiens, UniProt Q9UKP6); assay: Human Radioligand Binding Assay ((^125I)-U-II binding to intact HSMM)
T3 sequence (Q9UKP6 1-389): T1 sequence (Q9UKP6 1-389)

[4] = read-out: Human UII Average Binding Ki, intact HSMM, 0.150 nM (^125I)-U-II, 3 h, 25° C.

Structure (SMILES)	IC50 [1] [nM]	IC50 [2] [nM]	Ki [3] [nM]	Ki [3, 4] [nM]
CCN1CCN(c2cccc3c2CN([C@H](CCCNC(=O)c2cncn2C)c2ccc(OC)c(OC)c2)C3=O)CC1 [Cpd 59, 3-methyl-3H-imidazole-4-carboxylic acid {(4R)-4-(3,4-dimethoxy-phenyl)-4-[4-(4-ethyl-piperazin-1-yl)-1-oxo-1,3-dihydro-isoindol-2-yl]-butyl}-amide]	1260	82	> 300	–
COc1ccc([C@@H](CCCOCc2ccccc2)N2Cc3c(cccc3N3CCNCC3)C2=O)cc1OC [Cpd 41, 2-[(1R)-4-benzyloxy-1-(3,4-dimethoxy-phenyl)-butyl]-4-piperazin-1-yl-2,3-dihydro-isoindol-1-one]	450	22	165	–
CCN1CCN(c2cccc3c2CN([C@H](CCCOCc2ccccc2)c2ccc(OC)c(OC)c2)C3=O)CC1 [Cpd 74, 2-[(1R)-4-benzyloxy-1-(3,4-dimethoxy-phenyl)-butyl]-4-(4-ethyl-piperazin-1-yl)-2,3-dihydro-isoindol-1-one]	145	5	19	–
CCN1CCN(c2cccc3c2CN([C@H](CCCN2Cc4ccccc4C2)c2ccc(OC)c(OC)c2)C3=O)CC1 [Cpd 100, 2-[(1R)-4-(1,3-dihydro-isoindol-2-yl)-1-(3,4-dimethoxy-phenyl)-butyl]-4-(4-ethyl-piperazin-1-yl)-2,3-dihydro-isoindol-1-one]	319	8	24	–
CCN1CCN(c2cccc3c2CN([C@H](CCCN2CCc4ccccc4C2)c2ccc(OC)c(OC)c2)C3=O)CC1 [Cpd 101, 2-[(1R)-4-(3,4-dihydro-1H-isoquinolin-2-yl)-1-(3,4-dimethoxy-phenyl)-butyl]-4-(4-ethyl-piperazin-1-yl)-2,3-dihydro-isoindol-1-one]	69	5	21	–
CCNCCC[C@H](c1ccc(OC)c(OC)c1)N1Cc2c(cccc2N2CCN(CC)CC2)C1=O [Cpd 69, 2-[(1R)-1-(3,4-dimethoxy-phenyl)-4-ethylamino-butyl]-4-(4-ethyl-piperazin-1-yl)-2,3-dihydro-isoindol-1-one]	> 10000	820	199	–
CCN1CCN(c2cccc3c2CN([C@H](CCCNC(=O)C2CCC2)c2ccc(OC)c(OC)c2)C3=O)CC1 [Cpd 80, cyclobutanecarboxylic acid {(4R)-4-(3,4-dimethoxy-phenyl)-4-[4-(4-ethyl-piperazin-1-yl)-1-oxo-1,3-dihydro-isoindol-2-yl]-butyl}-amide]	311	21	18	–
CCN1CCN(c2cccc3c2CN([C@H](CCCNS(=O)(=O)O)c2ccc(OC)c(OC)c2)C3=O)CC1 [Cpd 71, {(4R)-4-(3,4-dimethoxy-phenyl)-4-[4-(4-ethyl-piperazin-1-yl)-1-oxo-1,3-dihydro-isoindol-2-yl]-butyl}-sulfamic acid]	1790	457	> 300	–
COc1ccc([C@@H](CCCN(C)S(=O)(=O)c2cccs2)N2Cc3c(cccc3N3CCNCC3)C2=O)cc1OC [Cpd 30, thiophene-2-sulfonic acid [(4R)-4-(3,4-dimethoxy-phenyl)-4-(1-oxo-4-piperazin-1-yl-1,3-dihydro-isoindol-2-yl)-butyl]-methyl-amide]	409	39	–	49
CCN1CCN(c2cccc3c2CN([C@H](CCCNC(=O)c2ccco2)c2ccc(OC)c(OC)c2)C3=O)CC1 [Cpd 78, furan-2-carboxylic acid {(4R)-4-(3,4-dimethoxy-phenyl)-4-[4-(4-ethyl-piperazin-1-yl)-1-oxo-1,3-dihydro-isoindol-2-yl]-butyl}-amide]	394	15	20	–
CCN1CCN(c2cccc3c2CN([C@H](CCCn2cncn2)c2ccc(OC)c(OC)c2)C3=O)CC1 [Cpd 25, 2-[(1R)-1-(3,4-dimethoxy-phenyl)-4-[1,2,4]triazol-1-yl-butyl]-4-(4-ethyl-piperazin-1-yl)-2,3-dihydro-isoindol-1-one]	2110	145	301	–
CCN1CCN(c2cccc3c2CN([C@H](CCCNCc2cccs2)c2ccc(OC)c(OC)c2)C3=O)CC1 [Cpd 72, 2-{(1R)-1-(3,4-dimethoxy-phenyl)-4-[(thiophen-2-ylmethyl)-amino]-butyl}-4-(4-ethyl-piperazin-1-yl)-2,3-dihydro-isoindol-1-one]	59	6	–	18
COc1ccc([C@@H](CCCOc2ccccc2)N2Cc3c(cccc3N3CCN(Cc4ccccc4)CC3)C2=O)cc1OC [Cpd 34, 4-(4-benzyl-piperazin-1-yl)-2-[(1R)-1-(3,4-dimethoxy-phenyl)-4-phenoxy-butyl]-2,3-dihydro-isoindol-1-one]	310	105	32	–
CCN1CCN(c2cccc3c2CN(C(c2ccc(OC)c(OC)c2)C2CCN(S(=O)(=O)c4cccs4)CC2)C3=O)CC1 (stereo not drawn) [Cpd 45, 2-{(3,4-dimethoxy-phenyl)-[1-(thiophene-2-sulfonyl)-piperidin-4-yl]-methyl}-4-(4-ethyl-piperazin-1-yl)-2,3-dihydro-isoindol-1-one]	3320	465	> 300	–

Further molecules by falling IC50 [1], results first:

IC50 [1] [nM]	IC50 [2] [nM]	Ki [3] [nM]	Structure (SMILES)	Ki [3, 4] [nM]
2680	173	> 300	CCN1CCN(c2cccc3c2CN(C(c2ccc(OC)c(OC)c2)C2CCN(Cc4ccccc4)CC2)C3=O)CC1 (stereo not drawn) [Cpd 43, 2-[(1-benzyl-piperidin-4-yl)-(3,4-dimethoxy-phenyl)-methyl]-4-(4-ethyl-piperazin-1-yl)-2,3-dihydro-isoindol-1-one]	–
2040	45	157	CCN1CCN(c2cccc3c2CN([C@H](CCCn2ccnc2)c2ccc(OC)c(OC)c2)C3=O)CC1 [Cpd 32, 2-[(1R)-1-(3,4-dimethoxy-phenyl)-4-imidazol-1-yl-butyl]-4-(4-ethyl-piperazin-1-yl)-2,3-dihydro-isoindol-1-one]	–
913	245	49	CCN1CCN(c2cccc3c2CN([C@H](CCCNC(=O)c2cn(C)cn2)c2ccc(OC)c(OC)c2)C3=O)CC1 [Cpd 57, 1-methyl-1H-imidazole-4-carboxylic acid {(4R)-4-(3,4-dimethoxy-phenyl)-4-[4-(4-ethyl-piperazin-1-yl)-1-oxo-1,3-dihydro-isoindol-2-yl]-butyl}-amide]	–
620	4	8	CCN1CCN(c2cccc3c2CN([C@H](CCCNc2nccc(OC)n2)c2ccc(OC)c(OC)c2)C3=O)CC1 [Cpd 21, 2-[(1R)-1-(3,4-dimethoxy-phenyl)-4-(4-methoxy-pyrimidin-2-ylamino)-butyl]-4-(4-ethyl-piperazin-1-yl)-2,3-dihydro-isoindol-1-one]	–
370	10	75	CCN1CCN(c2cccc3c2CN([C@H](CCCNc2ccccc2)c2ccc(OC)c(OC)c2)C3=O)CC1 [Cpd 40, 2-[(1R)-1-(3,4-dimethoxy-phenyl)-4-phenylamino-butyl]-4-(4-ethyl-piperazin-1-yl)-2,3-dihydro-isoindol-1-one]	–
51	23	25	CCN1CCN(c2cccc3c2CN([C@H](CCCNS(=O)(=O)c2cn(C)c(C)n2)c2ccc(OC)c(OC)c2)C3=O)CC1 [Cpd 82, 1,2-dimethyl-1H-imidazole-4-sulfonic acid {(4R)-4-(3,4-dimethoxy-phenyl)-4-[4-(4-ethyl-piperazin-1-yl)-1-oxo-1,3-dihydro-isoindol-2-yl]-butyl}-amide]	–
20	7	8	CCN1CCN(c2cccc3c2CN([C@H](CCCN(Cc2ccncc2)Cc2ccncc2)c2ccc(OC)c(OC)c2)C3=O)CC1 [Cpd 63, 2-[(1R)-4-(bis-pyridin-4-ylmethyl-amino)-1-(3,4-dimethoxy-phenyl)-butyl]-4-(4-ethyl-piperazin-1-yl)-2,3-dihydro-isoindol-1-one]	–
